Test results reported in patent publication US11555042B2, “Macrocyclic compounds as TRK kinases inhibitors” (FOCHON BIOSCIENCES, LTD., priority 2018, dated 2023).
pIC50: −log10 of the molar value.

Experiments:
KM12 cells = KM12 cells proliferation inhibition (MTS), mechanism-based assay for TRK; type: cell-based
Excerpt: (§1) MTS testing kit was purchased from Promega (Madison, Wis., USA). The RPMI-1640, Fetal bovine serum and Penicillin-Streptomycin were purchased from Gibco (San Francisco, Calif., USA). Dimethyl sulfoxide (DMSO) and Puromycin were purchased from Sigma (St. Louis., Mo., USA). Mouse interleukin-3 (IL-3) was purchased from Cell signaling Technology (Boston, Mass., USA).
To investigate whether a compound is able to inhibit the activity of TRK in cells, a mechanism-based assay using KM12 cells was developed. In this assay, inhibition of TRK was detected by the inhibition of KM12 cells proliferation. KM12 cells were cultured in culture flasks to 40-80% confluence in RPMI-1640 plus 10% fetal bovine serum. Cells were collected and plated onto 96-well plates at 1000 cells/well. Plates were incubated at 37° C., with 5% CO2 for 4 h. Compounds were added to the plates, the final compound concentrations were […], 123.5, 41.2, 13.7, 4.6 and 1.5 nM. Place plates at 37° C., with 5% CO2 for KM12 cells 72 h. 20 μl MTS/100 μl medium mixture solution were added to each well and incubate the plates for exactly 2 h. Stop the reaction by adding 25 μl 10% SDS per well. Measure absorbance at 490 nm and 650 nm (reference wavelength). IC50 was calculated using GraphPad Prism 5.0.

ETV6-TRKC-G623R = biological target: T1, ETV6-TRKC-G623R (Homo sapiens, UniProt Q16288, G623R); experiment: Engineered Ba/F3 cell proliferation inhibition (MTS), ETV6-TRKC-G623R; type: cell-based; settings: 72 h
T1 construct: fused on or other part: P41212 (Transcription factor ETV6)
T1 sequence (Q16288 whole entry G623R, the tested form may be a part): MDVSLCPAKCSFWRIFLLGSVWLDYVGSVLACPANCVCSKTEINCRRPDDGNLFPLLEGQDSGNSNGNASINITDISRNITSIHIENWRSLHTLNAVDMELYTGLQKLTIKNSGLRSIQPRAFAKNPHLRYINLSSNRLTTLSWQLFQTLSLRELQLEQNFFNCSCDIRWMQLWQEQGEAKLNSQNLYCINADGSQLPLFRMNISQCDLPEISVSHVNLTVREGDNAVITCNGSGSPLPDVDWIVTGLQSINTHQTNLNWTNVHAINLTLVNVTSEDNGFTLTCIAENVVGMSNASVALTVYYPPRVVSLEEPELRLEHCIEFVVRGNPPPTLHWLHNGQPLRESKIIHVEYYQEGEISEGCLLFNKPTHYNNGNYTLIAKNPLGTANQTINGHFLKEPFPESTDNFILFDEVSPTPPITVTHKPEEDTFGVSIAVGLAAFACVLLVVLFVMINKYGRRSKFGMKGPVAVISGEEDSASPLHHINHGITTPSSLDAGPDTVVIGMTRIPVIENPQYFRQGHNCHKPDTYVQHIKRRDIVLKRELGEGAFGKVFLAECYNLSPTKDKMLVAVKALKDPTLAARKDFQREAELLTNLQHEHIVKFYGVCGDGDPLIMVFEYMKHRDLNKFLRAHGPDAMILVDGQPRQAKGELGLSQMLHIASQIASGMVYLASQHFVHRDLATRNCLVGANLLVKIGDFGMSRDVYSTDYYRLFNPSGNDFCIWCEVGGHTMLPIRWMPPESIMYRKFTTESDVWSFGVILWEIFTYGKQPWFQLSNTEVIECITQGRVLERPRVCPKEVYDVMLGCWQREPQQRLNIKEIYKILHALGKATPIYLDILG
Excerpt: as §1
To investigate whether a compound is able to inhibit the activity of TRK fusion mutation in cells, a mechanism-based assay using engineered Ba/F3 cell lines stably overexpressing oncogenic rearrangement or gene mutation of TRK (TPM3-TRKA, TPM3-TRKA-G595R, AFAP1-TRKB, ETV6-TRKC and ETV6-TRKC-G623R) were developed. In this assay, inhibition of TRK fusion mutation was detected by the cell proliferation inhibition of engineered Ba/F3 cells. Engineered Ba/F3 cells were cultured in culture flasks to 40-80% confluence in RPMI-1640 supplemented with 10% fetal bovine serum, 2 ug/mL puromycin. Cells were collected and plated onto 96-well plates at desired cell density (Ba/F3-TPM3-TRKA: 3×10^4/mL, Ba/F3-TPM3-TRKA-G595R: 1×10^5/mL, Ba/F3-AFAP1-TRKB: 1×10^5/mL, Ba/F3-ETV6-TRKC: 3×10^4/mL, Ba/F3-ETV6-TRKC-G623R: 3×10^4/mL). Plates were incubated at 37° C., with 5% CO2 for 4 h. Compounds were then added to the plates with the final compound concentrations of 10000, 3333, 1111, […], 123, 41.2, 13.7, 4.6 and 1.5 nM. Plates were incubated at 37° C., with 5% CO2 for 72 h. A mixture of 20 μl MTS/100 μl medium were added to each well and the plates were incubated at 37° C., with 5% CO2 for exactly 2 h. The reaction was stopped by adding 25 μl of 10% SDS per well. The absorbance was measured at 490 nm and 650 nm (reference wavelength). IC50 was calculated using GraphPad Prism 5.0 software.

| SMILES | pIC50 (KM12 cells; Homo sapiens, KM12, 72 h) | further results |
| --- | --- | --- |
| C[C@@H]1CCc2ncc(F)cc2C2(CC2)Nc2ccn3ncc(c3n2)C(=O)N1 [Example 10, (R,3′E,4′E)-5′-fluoro-7′-methylspiro[cyclopropane-1,3′-2,8-diaza-1(5,3)-pyrazolo[1,5-a]pyrimidina-4(3,2)-pyridinacyclononaphan]-9′-one] | 9.00 | – |
| C[C@H]1CNC(=O)c2cnn3ccc(nc23)N2CCC3CC32c2cc(F)cnc2O1 (stereo partly drawn) [Example 7, (1^3E,1^4E,5S)-3^5-fluoro-5-methyl-4-oxa-2^2,7-diaza-1(5,3)-pyrazolo[1,5-a]pyrimidina-3(3,2)-pyridina-2(2,1)-bicyclo[3.1.0]hexanacyclooctaphan-8-one] | 9.00 | – |
| O=C1NCC(F)(F)COc2ncc(F)cc2[C@@]23C[C@@H]2CCN3c2ccn3ncc1c3n2 [Example 81, (1^3E,1^4E,2^1R,2^5S)-3^5,6,6-trifluoro-4-oxa-2^2,8-diaza-1(5,3)-pyrazolo[1,5-a]pyrimidina-3(3,2)-pyridina-2(2,1)-bicyclo[3.1.0] hexanacyclononaphan-9-one] | – | pIC50 (ETV6-TRKC-G623R): 9.00 |
| C[C@H]1CNC(=O)c2cnn3ccc(nc23)NC2(CC2)c2cc(F)ccc2O1 [Example 4, (S,3′E,4′E)-5′-fluoro-6′-methylspiro[cyclopropane-1,3′-5-oxa-2,8-diaza-1(5,3)-pyrazolo[1,5-a]pyrimidina-4(1,2)-benzenacyclononaphan]-9′-one] | 9.00 | – |
| C[C@H]1CNC(=O)c2cnc3ccc(nn23)N2CCC3CC32c2cc(F)ccc2O1 (stereo partly drawn) [Example 32, (5S,E)-3^5-fluoro-5-methyl-4-oxa-2^2,7-diaza-1(6,3)-imidazo[1,2-b]pyridazina-2(2,1)-bicyclo[3.1.0]hexana-3(1,2)-benzenacyclo-octaphan-8-one] | 9.00 | – |
| C[C@@H]1CCc2ccc(F)cc2C23CC2CCN3c2ccc3ncc(n3n2)C(=O)N1 (single isomer, unassigned) [Example 33A] | 9.00 | – |
| C[C@@H]1COc2ncc(F)cc2C23CC2CCN3c2ccn3ncc(c3n2)C(=O)N1 (stereo partly drawn) [Example 6, (1^3E,1^4E,6R)-3^5-fluoro-6-methyl-4-oxa-2^2,7-diaza-1(5,3)-pyrazolo[1,5-a]-pyrimidina-3(3,2)-pyridina-2(2,1)-bicyclo[3.1.0]hexanacyclooctaphan-8-one] | 9.00 | – |
| Nc1nn2ccc3nc2c1C(=O)NC1(CC1)COc1ncc(F)cc1[C@@]12C[C@@H]1CCN32 [Example 98, (1′R,3′E,4′E,5′S)-2′-amino-5′-fluorospiro-[cyclopropane-1,6′-4-oxa-2^2,7-diaza-1(5,3)-pyrazolo[1,5-a]pyrimidina-3(3,2)-pyridina-2(2,1)-bicyclo[3.1.0]-hexanacyclooctaphan]-8′-one] | – | pIC50 (ETV6-TRKC-G623R): 9.00 |
| C[C@@H]1CCc2ccc(F)cc2C23CC2CCN3c2ccn3ncc(c3n2)C(=O)N1 (stereo partly drawn) [Example 12A, (1^3E,1^4E,6R)-3^5-fluoro-6-methyl-2^2,7-diaza-1(5,3)-pyrazolo[1,5-a]pyrimidina-2(2,1)-bicyclo[3.1.0]hexana-3(1,2)-benzenacyclooctaphan-8-one] | 9.00 | – |
| C[C@H]1CNC(=O)c2cnn3ccc(nc23)NC2(CC2)c2cc(F)cnc2O1 [Example 9, (S,3′E,4′E)-5′-fluoro-6′-methylspiro[cyclopropane-1,3′-5-oxa-2,8-diaza-1(5,3)-pyrazolo[1,5-a]pyrimidina-4(3,2)-pyridinacyclononaphan]-9′-one] | 8.15 | – |
| CN1c2ccn3ncc(c3n2)C(=O)NCC(F)(F)COc2ncc(F)cc2C12CC2 [Example 94, (3′E,4′E)-5′,7′,7′-trifluoro-2′-methylspiro-[cyclopropane-1,3′-5-oxa-2,9-diaza-1(5,3)-pyrazolo[1,5-a]pyrimidina-4(4,3)-pyridina-cyclodecaphan]-10′-one] | – | pIC50 (ETV6-TRKC-G623R): 7.60 |
| C[C@@H]1CCc2ncc(F)cc2C23CC2CCN3c2ccn3ncc(c3n2)C(=O)N1 (stereo partly drawn) [Example 5, (1^3E,1^4E,6R)-3^5-fluoro-6-methyl-2^2,7-diaza-1(5,3)-pyrazolo[1,5-a]pyrimidina-3(3,2)-pyridina-2(2,1)-bicyclo[3.1.0]hexanacyclooctaphan-8-one] | 9.00 | – |
| O=C1NCC(O)COc2ncc(F)cc2[C@@]23C[C@@H]2CCN3c2ccn3ncc1c3n2 (stereo partly drawn) [Example 83, (1^3E,1^4E,2^1R,2^5S)-3^5-fluoro-6-hydroxy-4-oxa-2^2,8-diaza-1(5,3)-pyrazolo[1,5-a] pyrimidina-3(3,2)-pyridina-2(2,1)-bicyclo [3.1.0]hexanacyclononaphan-9-one] | – | pIC50 (ETV6-TRKC-G623R): 9.00 |
| C[C@@H]1CCc2ccc(F)cc2C23CC2CCN3c2ccc3ncc(n3n2)C(=O)N1 (single isomer, unassigned) [Example 33B] | – | pIC50 (KM12 cells; 72 h): 9.00 |
| C[C@@H]1CCc2ncc(F)cc2C23CC2CCN3c2ccc3ncc(n3n2)C(=O)N1 (stereo partly drawn) [Example 35, (6R,E)-3^5-fluoro-6-methyl-2^2,7-diaza-1(6,3)-imidazo[1,2-b]pyridazina-3(3,2)-pyridina-2(2,1)-bicyclo[3.1.0]hexanacyclo-octaphan-8-one] | 9.00 | – |
| C[C@@H]1CCc2ccc(F)cc2C2(CC2)N(C)c2ccc3ncc(n3n2)C(=O)N1 [Example 56, (7′R,E)-5′-fluoro-2′,7′-dimethylspiro-[cyclopropane-1,3′-2,8-diaza-1(6,3)-imidazo[1,2-b]pyridazina-4(1,2)-benzenacyclononaphan]-9′-one] | 8.52 | – |
| C[C@@H]1CCc2ccc(F)cc2C23CC2CCN3c2ccn3ncc(c3n2)C(=O)N1 (stereo partly drawn) [Example 12B, (1^3E,1^4E,6R)-3^5-fluoro-6-methyl-2^2,7-diaza-1(5,3)-pyrazolo[1,5-a]pyrimidina-2(2,1)-bicyclo[3.1.0]hexana-3(1,2)-benzenacyclooctaphan-8-one] | – | pIC50 (KM12 cells; 72 h): 8.70 |
| C[C@@H]1COc2ccc(F)cc2C23CC2CCN3c2ccc3ncc(n3n2)C(=O)N1 (stereo partly drawn) [Example 13, (6R,E)-3^5-fluoro-6-methyl-4-oxa-2^2,7-diaza-1(6,3)-imidazo[1,2-b]pyridazina-2(2,1)-bicyclo[3.1.0]hexana-3(1,2)-benzenacyclooctaphan-8-one] | 9.00 | – |
| C[C@@H]1CNC(=O)c2cnn3ccc(nc23)NC2(CC2)c2cc(F)cnc2O1 [Example 42, (R,3′E,4′E)-5′-fluoro-6′-methylspiro-[cyclopropane-1,3′-5-oxa-2,8-diaza-1(5,3)-pyrazolo[1,5-a]pyrimidina-4(3,2)-pyridina-cyclononaphan]-9′-one] | 8.52 | – |
| C[C@H]1CNC(=O)c2cnc3ccc(nn23)N2CCC3CC32c2cc(F)cnc2O1 (stereo partly drawn) [Example 34, (5S,E)-3^5-fluoro-5-methyl-4-oxa-2^2,7-diaza-1(6,3)-imidazo[1,2-b]pyridazina-3(3,2)-pyridina-2(2,1)-bicyclo[3.1.0]-hexanacyclooctaphan-8-one] | 9.00 | – |
| C[C@@H]1COc2ccc(F)cc2C23CC2CCN3c2ccn3ncc(c3n2)C(=O)N1 (stereo partly drawn) [Example 1, (1^3E,1^4E,6R)-3^5-fluoro-6-methyl-4-oxa-2^2,7-diaza-1(5,3)-pyrazolo[1,5-a]pyrimidina-2(2,1)-azabicyclo[3.1.0]hexana-3(1,2)-benzenacyclooctaphan-8-one] | 9.00 | – |
| C[C@@H]1COc2ccc(F)cc2C2(CC2)N(C)c2ccc3ncc(n3n2)C(=O)N1 [Example 53, (7′R,E)-5′-fluoro-2′,7′-dimethylspiro-[cyclopropane-1,3′-5-oxa-2,8-diaza-1(6,3)-imidazo[1,2-b]pyridazina-4(1,2)-benzenacyclononaphan]-9′-one] | 7.52 | – |
| C[C@@H]1COc2ccc(F)cc2C2(CC2)Nc2ccn3ncc(c3n2)C(=O)N1 [Example 2, (R,3′E,4′E)-5′-fluoro-7′-methylspiro[cyclopropane-1,3′-5-oxa-2,8-diaza-1(5,3)-pyrazolo[1,5-a]pyrimidina-4(1,2)-benzenacyclononaphan]-9′-one] | 9.00 | – |
| C[C@@H]1COc2ncc(F)cc2C23CC2CCN3c2ccc3ncc(n3n2)C(=O)N1 (stereo partly drawn) [Example 14, (6R,E)-3^5-fluoro-6-methyl-4-oxa-2^2,7-diaza-1(6,3)-imidazo[1,2-b]pyridazina-3(3,2)-pyridina-2(2,1)-bicyclo[3.1.0]hexanacyclooctaphan-8-one] | 9.00 | – |
